Measured values reported in article PMC10878397, “Development of Potent Dual BET/HDAC Inhibitors via Pharmacophore Merging and Structure-Guided Optimization” (ACS Chemical Biology, 2024).
Several values for one entry are separate records, joined by “and”; a condition that tells them apart may be missing. Equal entries are not always repeated. Where two headings read alike, the source gives them in different places.

Columns and labels:
HCC2429 cells = test: CellTiter-Glo cell viability assay; format: cell-based; conditions: Homo sapiens, HCC2429, 72 h; treatment for 3 days
Protocol: (§1) PDAC cell line PaTu8988T was obtained from ATCC and cultured in Dulbecco’s modified Eagle’s medium (DMEM) containing 10% FBS, 25 mM glucose, […], 1 mM sodium pyruvate, and 1% penicillin–streptomycin. Nut midline carcinoma cell line HCC2429 was kindly provided by Lead Discovery Center GmbH (Dortmund, Germany) and was cultured in RPMI1640 medium containing 10% FBS, 2 mM L-glutamine, and 1% penicillin–streptomycin. Cell line PaTu8988T was authenticated using the Multiplex human Cell line Authentication Test (MCA) by Multiplexion GmbH, and cell line HCC2429 was authenticated using short tandem repeat (STR) profiling.
(§2) The assays were performed using Promega’s CellTiter-Glo Luminescent Cell Viability Assay kit (Cat. #G7571). First, compounds dissolved in DMSO were printed in 96-well plates (Corning) by using a Tecan D300e digital dispenser. Then, cells were seeded into the compound-printed plates using a Thermo Multidrop reagent dispenser. 72 h later, one volume of diluted CellTiter-Glo reagent (1:4 dilution with PBS) was added to individual wells by using the Thermo Multidrop reagent dispenser again. Plates were shaken for 2 min and incubated for 10 min in the dark. Luminescent signals were read by using a Tecan Spark Multimode Microplate Reader. The values were normalized to the DMSO control wells and presented as a percentage of cell viability. Dose–response curves were drawn with GraphPad Prism 8.

PaTu8988T cells = test: CellTiter-Glo cell viability assay; format: cell-based; conditions: Homo sapiens, PaTu 8988t, 72 h; treatment for 3 days
Protocol: as §1, §2

BRD4 BD1 [1] = molecular target: T1, BRD4 BD1 (Homo sapiens, UniProt O60885); test: NanoBRET target engagement assay (HEK293T); format: cell-based; parameters: BRD4 bromodomains and full-length HDACs were obtained as plasmids cloned in-frame with a terminal NanoLuc fusion; host or cells: HEK293T
Protocol: (§3) The assay was performed as described previously.[17],[59] In brief, BRD4 bromodomains and full-length HDACs were obtained as plasmids cloned in-frame with a terminal NanoLuc fusion (Promega). Plasmids were transfected into HEK293T cells using FuGENE HD (Promega, E2312), and proteins were allowed to express for 20 h. Serially diluted inhibitor and the corresponding NanoBRET Tracer (Promega) at a concentration determined previously as the tracer KD, app were pipetted into white 384-well plates (Greiner #781207) for BRD assays or white 96-well plates (Corning #3600) for HDAC using an Echo acoustic dispenser (Labcyte). The corresponding protein-transfected cells were added and reseeded at a density of 2 × 10^5 cells/mL after trypsinization and resuspended in Opti-MEM without phenol red (Life Technologies). The system was allowed to equilibrate for 2 h at 37 °C/5% CO2 prior to BRET measurements. To measure BRET, NanoBRET NanoGlo substrate + Extracellular NanoLuc Inhibitor (Promega, N2540) was added as per the manufacturer’s protocol, and filtered luminescence was measured on a PHERAstar plate reader (BMG Labtech) equipped with a luminescence filter pair (450 nm BP filter (donor) and 610 nm LP filter (acceptor)). For lysed-mode NanoBRET experiments, digitonin (Promega, #G9441) was added as per the manufacturer’s instructions to a final concentration of […].

BRD4 BD2 [2] = molecular target: T2, BRD4 BD2 (Homo sapiens, UniProt O60885); test: NanoBRET target engagement assay (HEK293T); format: cell-based; parameters: BRD4 bromodomains and full-length HDACs were obtained as plasmids cloned in-frame with a terminal NanoLuc fusion; host or cells: HEK293T
Protocol: as §3

BRD4 BD1 [3] = molecular target: T1, BRD4 BD1; test: DSF thermal shift assay; format: binding; parameters: purchased in-house (SGC Frankfurt recombinant bromodomain DSF panel)
Protocol: (§4) The effects of inhibitor binding on the apparent melting temperature of recombinant bromodomains were determined by DSF in a 96-well plate (Starlab) at a protein concentration of 2 μM with 10 μΜ compound in buffer containing 25 mM HEPES, pH 7.5, 150 mM NaCl, and 0.5 mM TCEP. […] Protein unfolding profiles were recorded using an MX3005P real-time qPCR instrument (Agilent; excitation/emission filters = 492/610 nm) while increasing the temperature from 25 to 95 °C at a heating rate of 3 °C/min. Tm values were calculated after fitting the fluorescence curves to the Boltzmann equation. Differences in melting temperature upon compound binding are given as ΔTm = Tm (protein with inhibitor) – Tm (protein with DMSO control). Measurements were performed in triplicates.

BRD4 BD2 [4] = molecular target: T2, BRD4 BD2; test: DSF thermal shift assay; format: binding; parameters: purchased in-house (SGC Frankfurt recombinant bromodomain DSF panel)
Protocol: as §4

HDAC1 = HDAC1 (Homo sapiens, UniProt Q13547); test: NanoBRET target engagement assay (HEK293T); format: cell-based; parameters: BRD4 bromodomains and full-length HDACs were obtained as plasmids cloned in-frame with a terminal NanoLuc fusion; host or cells: HEK293T
Protocol: (§5) The assay was performed as described previously.[17],[59] In brief, BRD4 bromodomains and full-length HDACs were obtained as plasmids cloned in-frame with a terminal NanoLuc fusion (Promega). Plasmids were transfected into HEK293T cells using FuGENE HD (Promega, E2312), and proteins were allowed to express for 20 h. […] The corresponding protein-transfected cells were added and reseeded at a density of 2 × 10^5 cells/mL after trypsinization and resuspended in Opti-MEM without phenol red (Life Technologies). The system was allowed to equilibrate for 2 h at 37 °C/5% CO2 prior to BRET measurements. […] For lysed-mode NanoBRET experiments, digitonin (Promega, #G9441) was added as per the manufacturer’s instructions to a final concentration of […].

HDAC2 = HDAC2 (Homo sapiens, UniProt Q92769); test: NanoBRET target engagement assay (HEK293T); format: cell-based; parameters: BRD4 bromodomains and full-length HDACs were obtained as plasmids cloned in-frame with a terminal NanoLuc fusion; host or cells: HEK293T
Protocol: as §5

BRD4 bromodomains = BRD4 bromodomains (Homo sapiens, UniProt O60885); test: NanoBRET target engagement assay, both bromodomains; format: cell-based
Protocol: as §3

HDAC3 = HDAC3 (Homo sapiens, UniProt O15379); test: NanoBRET target engagement assay (HEK293T); format: cell-based; parameters: BRD4 bromodomains and full-length HDACs were obtained as plasmids cloned in-frame with a terminal NanoLuc fusion; host or cells: HEK293T; conditions: intact cells
Protocol: as §5

[5] = parameters: method as in PMID 30649740; conditions: cited from earlier work
[6] = 10 μM compound, 2 μM protein, read-out: DSF ΔTm BRD4 BD1
[7] = 10 μM compound, 2 μM protein, read-out: DSF ΔTm BRD4 BD2
[8] = read-out: DSF ΔTm BRD4 BD1, 10 μM compound, 2 μM protein
[9] = read-out: DSF ΔTm BRD4 BD2, 10 μM compound, 2 μM protein

HDAC1, sequence (Q13547 whole entry, the tested form may be a part): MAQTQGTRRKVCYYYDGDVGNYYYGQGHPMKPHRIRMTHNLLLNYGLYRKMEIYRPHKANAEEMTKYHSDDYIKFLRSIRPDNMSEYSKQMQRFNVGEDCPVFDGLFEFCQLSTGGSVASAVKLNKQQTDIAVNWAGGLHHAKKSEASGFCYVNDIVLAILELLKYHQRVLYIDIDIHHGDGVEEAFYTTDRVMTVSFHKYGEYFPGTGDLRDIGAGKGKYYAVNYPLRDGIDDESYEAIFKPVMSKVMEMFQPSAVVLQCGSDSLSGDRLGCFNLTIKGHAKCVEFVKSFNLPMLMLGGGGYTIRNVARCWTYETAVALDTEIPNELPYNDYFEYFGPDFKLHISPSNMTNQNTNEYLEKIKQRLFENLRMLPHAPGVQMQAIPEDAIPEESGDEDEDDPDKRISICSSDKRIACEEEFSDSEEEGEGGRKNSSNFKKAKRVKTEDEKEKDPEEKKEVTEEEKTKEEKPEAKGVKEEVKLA
HDAC2, sequence (Q92769 whole entry, the tested form may be a part): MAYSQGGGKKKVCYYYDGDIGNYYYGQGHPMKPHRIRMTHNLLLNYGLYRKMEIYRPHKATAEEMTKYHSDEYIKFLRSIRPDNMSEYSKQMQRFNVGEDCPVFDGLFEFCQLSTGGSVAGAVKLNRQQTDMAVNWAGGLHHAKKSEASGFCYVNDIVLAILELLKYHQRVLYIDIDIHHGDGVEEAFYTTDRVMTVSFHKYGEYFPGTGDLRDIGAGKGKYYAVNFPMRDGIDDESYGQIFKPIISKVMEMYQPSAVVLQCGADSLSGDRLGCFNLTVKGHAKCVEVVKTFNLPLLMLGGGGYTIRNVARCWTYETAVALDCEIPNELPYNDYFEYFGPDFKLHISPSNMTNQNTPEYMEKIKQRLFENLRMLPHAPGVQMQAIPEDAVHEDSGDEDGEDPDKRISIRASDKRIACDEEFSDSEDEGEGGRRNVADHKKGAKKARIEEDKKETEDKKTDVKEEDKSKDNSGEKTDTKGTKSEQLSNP
HDAC3, sequence (O15379 whole entry, the tested form may be a part): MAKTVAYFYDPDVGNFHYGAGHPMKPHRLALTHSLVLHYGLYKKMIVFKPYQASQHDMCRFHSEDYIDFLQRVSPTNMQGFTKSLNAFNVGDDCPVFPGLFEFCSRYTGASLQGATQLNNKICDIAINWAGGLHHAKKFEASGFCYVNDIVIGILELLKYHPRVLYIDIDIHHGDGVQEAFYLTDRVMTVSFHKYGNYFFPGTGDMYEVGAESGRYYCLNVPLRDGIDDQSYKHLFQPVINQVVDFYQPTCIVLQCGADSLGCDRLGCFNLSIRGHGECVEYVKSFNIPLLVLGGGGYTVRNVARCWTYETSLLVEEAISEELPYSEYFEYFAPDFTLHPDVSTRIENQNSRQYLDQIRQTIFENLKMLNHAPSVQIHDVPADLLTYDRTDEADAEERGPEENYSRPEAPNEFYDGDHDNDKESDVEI

IC50 (HCC2429 cells) [nM] | ΔTm at 10 µM (BRD4 BD1 [3]; [6]) [°C] | ΔTm at 10 µM (BRD4 BD2 [4]; [7]) [°C] | EC50 (HDAC1; intact cells) | EC50 (HDAC1; lysed cells (digitonin)) [nM] | EC50 (HDAC2; intact cells) | EC50 (BRD4 BD1 [1]; intact cells) [nM] | EC50 (BRD4 BD2 [2]; intact cells) [nM] | Structure (SMILES) | IC50 (PaTu8988T cells) [nM] | also measured
1800 ± 200 |  |  |  |  |  |  |  | CC(=O)Nc1ccc(C(=O)Nc2ccccc2N)cc1 [CI-994, reference compound] | 13100 ± 2400 | EC50 (BRD4 BD1 [1]; lysed cells (digitonin)): > 50000 nM; EC50 (BRD4 BD2 [2]; lysed cells (digitonin)): > 50000 nM
 | 5.3 | ~3 | 10800 ± 5100 nM |  | > 50000 nM |  |  | Cc1cc(/N=N/c2ccc(C(=O)Nc3ccccc3N)cc2)c(N)cc1O [NB161] |  | DSF ΔTm BRD4 BD1 (BRD4 BD1 [3]; 10 μM compound, 2 μM protein): 5.2 ± 0.3 K
 | 7.5 ± 0.2 | 5.2 ± 0.2 | 2100 ± 700 nM |  | 1300 ± 900 nM | 190 ± 30 | 50 ± 10 | Cc1cc(/N=N/c2ccc(C(=O)Nc3ccccc3N)cc2)c2cc[nH]c2c1O [NB390] |  | 
 | 0.9 ± 0.2 | 1.7 ± 0.3 | 34400 ± 5800 nM | 32200 ± 7100 | 39700 ± 9000 nM | 3700 ± 500 | 2100 ± 400 | Cn1cc(-c2ccc(C(=O)Nc3ccccc3N)cc2N)c2cc[nH]c2c1=O [NB469] |  | 
 | 3.8 ± 0.1 | 4.3 ± 0.3 | > 50000 nM | > 50000 | > 50000 nM | 390 ± 60 | 230 ± 70 | COc1cc(C(=O)Nc2ccccc2N)ccc1-c1cn(C)c(=O)c2[nH]ccc12 [NB470] |  | 
 | 1.9 ± 0.2 | 1.9 ± 0.3 | 2300 ± 600 nM |  | 3700 ± 2400 nM | 2600 ± 100 | 2900 ± 200 | Cn1cc(C(=O)Nc2ccc(C(=O)Nc3ccccc3N)cc2)c2cc[nH]c2c1=O [NB480] |  | 

The remaining lines, values behind:

Structure (SMILES) | IC50 (HCC2429 cells) [nM] | ΔTm at 10 µM (BRD4 BD1 [3]; [6]) [°C] | ΔTm at 10 µM (BRD4 BD2 [4]; [7]) [°C] | EC50 (HDAC1; intact cells) | EC50 (HDAC1; lysed cells (digitonin)) [nM] | EC50 (HDAC2; intact cells) | EC50 (BRD4 BD1 [1]; intact cells) [nM] | EC50 (BRD4 BD2 [2]; intact cells) [nM] | IC50 (PaTu8988T cells) [nM] | also measured
Cc1cc(/N=N/c2ccc(S(=O)(=O)Nc3ccccn3)cc2)c(N)cc1O [MS436, reference compound] | 810 ± 150 | 4 ± 0.4 | ~3 | 18800 ± 1000 nM | > 50000 | > 50000 nM |  |  | 10400 ± 1200 | DSF ΔTm BRD4 BD2 (BRD4 BD2 [4]; 10 μM compound, 2 μM protein): 2.9 ± 0.1 K; EC50 (HDAC2; lysed cells (digitonin)): > 50000 nM
Cn1cc(-c2ccc3cc(C(=O)Nc4ccccc4N)ccc3n2)c2cc[nH]c2c1=O [NB437] |  |  |  | 23200 nM and 23000 nM | 11000 ± 1800 | 24800 nM and 25000 nM | 180 ± 30 | 200 ± 30 |  | EC50 (BRD4 bromodomains; BD1 and BD2, intact cells, read-out: NanoBRET EC50 BRD4 bromodomains): 100 to 400 nM; DSF ΔTm BRD4 BD1 (BRD4 BD1 [3]; 10 μM compound, 2 μM protein): 4.0 ± 0.2 K; ΔTm at 10 µM (BRD4 BD1 [3]; [8]): 4 to 5 °C; DSF ΔTm BRD4 BD2 (BRD4 BD2 [4]; 10 μM compound, 2 μM protein): 4.8 ± 0.2 K; ΔTm at 10 µM (BRD4 BD2 [4]; [9]): 4 to 5 °C
Cn1cc(-c2ccc(C(=O)Nc3ccccc3N)nn2)c2cc[nH]c2c1=O [NB501] | 540 ± 60 |  |  | 16800 ± 6700 nM |  | 4600 ± 600 nM | 390 ± 20 | 290 ± 120 | 8500 ± 1300 | fold reduced binding to BRD4 compared with NB500 (BRD4 bromodomains; NanoBRET): about 2 fold; ΔTm at 10 µM (BRD4 BD1 [3]; [8]): 2.9 ± 0.3 °C; ΔTm at 10 µM (BRD4 BD2 [4]; [9]): 3.6 ± 0.2 °C
Cn1cc(-c2ccc(C(=O)Nc3ccc(F)cc3N)nc2)c2cc[nH]c2c1=O [NB507] | 240 ± 20 |  |  | 36300 nM and 36000 nM | 8200 ± 2100 | 14200 ± 4500 nM | 340 ± 100 | 100 ± 10 | 5200 ± 900 | EC50 (HDAC3): > 50000 nM
Cn1cc(-c2ccc(C(=O)Nc3cc(-c4ccco4)ccc3N)nc2)c2cc[nH]c2c1=O [NB513] | 320 ± 40 |  |  | 1300 ± 1000 nM |  | 2900 ± 1700 nM | 370 ± 50 | 310 ± 50 | 2600 ± 300 | 
Cn1cc(-c2ccc(C(=O)Nc3cc(-c4cccs4)ccc3N)nc2)c2cc[nH]c2c1=O [NB514] | 550 ± 60 |  |  | 140 ± 50 nM | 22 ± 8 | 58 nM and 60 nM | 290 ± 50 | 180 ± 40 | 4100 ± 700 | EC50 (HDAC3): 11400 ± 6900 nM
O=C(CCCCCCC(=O)Nc1ccccc1)NO [SAHA, suberoyl anilide hydroxamic acid] |  |  |  |  |  |  |  |  |  | metabolic half-life [5]: 2 h
